{"source": "paper PMC10115881", "about": "“Disrupting the α-synuclein-ESCRT interaction with a peptide inhibitor mitigates neurodegeneration in preclinical models of Parkinson’s disease” (Nature Communications, 2023)", "system": "A53T a-syn oligomers", "assay": "Split-YFP PCA/FACS screen of A53T a-syn oligomers", "format": "cell-based, human", "text": "We used a lentiviral library of 50,549 7-mer peptides enriched in PPI motifs[13] on a green fluorescent protein (GFP) scaffold (Fig. 1A). We infected cells in a pooled format and the amino acid sequence of each peptide served as its own barcode. By using a low multiplicity of infection followed by puromycin selection, each infected cell expressed one unique GFP-peptide. We screened for peptides that reduced a-syn-mediated cytotoxicity or a-syn oligomers in parallel (Fig. 1A). To cause cytotoxicity relevant to PD, we induced proteostatic stress in HEK293 cells by inhibiting the proteasome with MG132 and overexpressing human WT a-syn associated with idiopathic PD in one screen or the more toxic mutant A53T a-syn associated with familial PD in a second screen. This combination of a-syn overexpression and pharmacological proteasome inhibition led to death of most cells, with only those that expressed a protective peptide surviving. By extracting genomic DNA from the surviving cells and amplifying the peptide coding sequences, we identified the protective peptides (Fig. 1A). To detect a-syn oligomers, we used a protein fragment complementation assay (PCA) of a-syn oligomerization in HEK293 cells. In this assay, human A53T a-syn was fused to either the C- or N-terminal half of yellow fluorescent protein (YFP). No fluorescence is detectable while a-syn exists in monomers but, when a-syn oligomerizes, the two halves of YFP come in close enough proximity to form a functional, spontaneously fluorescent protein. […] Our screens yielded 10 hits (Table S1). The hit with the most reads (i.e., the most abundant) was the same peptide in all screens: IPIQLKA (named PDpep1) (Table S1). We validated the cytoprotective effects of PDpep1 in HEK293 cells overexpressing WT or A53T a-syn (Figs. 1B, S1A), as well as its ability to reduce WT or A53T a-syn oligomers in a luciferase-based PCA[18]–[20] compared to a scrambled control peptide (Figs. 1C, S1B).\nHEK293T cells (ATCC, CRL-3216) were maintained in DMEM supplemented with 10% FBS and 1% pen/strep/glutamine, and the appropriate selection antibiotics when required. Lentiviruses were made in a 15 cm dish format by transfecting packaging cells (HEK293T) with a three-plasmid system (expression vector, psPAX2 and pMD2.G) and using Polyjet DNA transfection reagent (FroggaBio, SL100688.1). Viral transduction of HEK293T cells were performed with a multiplicity of infection (MOI) of 0.3. Infected cells were selected in puromycin-containing medium to eliminate uninfected cells and three aliquots of cells were collected for sampling of the initial (T0) cell population. Cells were treated with MG132 at concentrations of 0, 10, 25, or 50 µM. For the cell viability screen, surviving cells were collected and gDNA was extracted for identification of peptide inhibitors of cell toxicity. For the inhibition of a-syn aggregation screen, a protein fragment complementation assay (PCA) was used by transfecting cells with split YFP-a-syn constructs following stable expression of the peptides. Cells were sorted based on their YFP fluorescence intensities with a FACSVantage SE cell sorter (BD Bioscience) and gDNA was extracted for identification of peptides.\nCells were harvested by trypsin treatment and centrifuged at 500 × g for 5 min. The pellet was resuspended in ice-cold PBS and centrifuged again. The pellet was then resuspended at a concentration of 4 × 10^6 cells/ml in the sorting buffer, which is PBS containing 100 Kunitz DNase I/ml, 10 μg/ml propidium iodide (Sigma), and 2% FBS. The cells were then sent through a 40 μm filter to remove large clumps and loaded into either a FACScan Flow Cytometer (BD Bioscience) for cell analysis or a FACSVantage SE cell sorter (BD Bioscience) for cell sorting. The cells with positive propidium iodide staining (i.e., dead cells) were first eliminated from the analysis. […]", "data": [{"substance": "IPIQLKA [PDpep1, initial screen hit peptide IPIQLKA]", "values": [{"measurement": "Reads GFP High", "value": 12}, {"measurement": "Reads GFP Inter", "value": 2853}, {"measurement": "Reads GFP Neg", "value": 15556}, {"measurement": "Reads Ratio", "value": "1,218.98"}]}]}
